Measurements from patent publication US10280167B2, “Purine derivatives for the treatment of viral infections” (JANSSEN SCIENCES IRELAND UC, priority 2011, dated 2019).
Like-named read-outs stand apart in the source and are kept apart here.

Experiments:
Type in all cases: cell-based
[1] = system: HEK-ISRE-luc cells with conditioned media from PBMC; assay: Interferon production in human PBMC (PBMC HEK-ISRE-luc LEC); conditions: Homo sapiens, PBMC, read-out: PBMC HEK-ISRE-luc (LEC)
Protocol: Measurement of Interferon Production in Human PBMC (PBMC HEK-ISRE-Luc LEC)
Activation of human TLR7 results in robust production of interferon by plasmacytoid dendritic cells present in human blood. The potential of compounds to induce interferon was evaluated by determination of interferon in the conditioned media from peripheral blood mononuclear cells (PBMC). The presence of interferon in the samples was determined, using an interferon reporter cell line stably expressing an interferon-stimulated responsive elements (ISRE)-luc reporter construct. The ISRE element with sequence GAAACTGAAACT (SEQ ID NO: 1) is highly responsive to the STAT1-STAT2-IRF9 transcription factor, which becomes activated upon binding of IFN-I to the IFN receptor. Briefly, PBMCs were prepared from buffy coats of at least two donors using a standard Ficoll centrifugation protocol. Isolated PBMCs were resuspended in RPMI medium supplemented with 10% human AB serum and 2×10^5 cells/well were dispensed into 384-well plates containing compounds (70 μL total volume). After overnight incubation of the PBMCs with the compounds, 10 μL of supernatant was transferred to 384-well plates containing 5×10^3 HEK-ISRE-luc cells/well in 30 μL (plated the day before). Following 24 hours of incubation, activation of the ISRE elements was measured by assaying luciferase activity using 40 μL/well Steady Lite Plus substrate (Perkin Elmer) and measured with ViewLux ultraHTS microplate imager (Perkin Elmer). The stimulating activity of each compound on the HEK-ISRE-luc cells was reported as LEC. The LEC in turn indicates the degree of ISRE activation on transfer of a defined amount of PBMC culture medium.
Recombinant interferon alfa-2a (Roferon-A) was used as a standard control compound.

[2] = target: human TLR7 (Homo sapiens (Human), UniProt Q9NYK1); assay: Reporter assay for TLR7 activity, HEK293 transiently transfected with wild type TLR7 and NFκB-luc; conditions: lowest effective concentration; 48 h transfection
[3] = system: human TLR7 dIRR2 mutant; assay: Reporter assay for TLR7 activity, HEK293 transfected with mutant TLR7 (dIRR2 deletion) and NFκB-luc; conditions: lowest effective concentration; 48 h transfection

Sequence of human TLR7 (Q9NYK1 27-1049): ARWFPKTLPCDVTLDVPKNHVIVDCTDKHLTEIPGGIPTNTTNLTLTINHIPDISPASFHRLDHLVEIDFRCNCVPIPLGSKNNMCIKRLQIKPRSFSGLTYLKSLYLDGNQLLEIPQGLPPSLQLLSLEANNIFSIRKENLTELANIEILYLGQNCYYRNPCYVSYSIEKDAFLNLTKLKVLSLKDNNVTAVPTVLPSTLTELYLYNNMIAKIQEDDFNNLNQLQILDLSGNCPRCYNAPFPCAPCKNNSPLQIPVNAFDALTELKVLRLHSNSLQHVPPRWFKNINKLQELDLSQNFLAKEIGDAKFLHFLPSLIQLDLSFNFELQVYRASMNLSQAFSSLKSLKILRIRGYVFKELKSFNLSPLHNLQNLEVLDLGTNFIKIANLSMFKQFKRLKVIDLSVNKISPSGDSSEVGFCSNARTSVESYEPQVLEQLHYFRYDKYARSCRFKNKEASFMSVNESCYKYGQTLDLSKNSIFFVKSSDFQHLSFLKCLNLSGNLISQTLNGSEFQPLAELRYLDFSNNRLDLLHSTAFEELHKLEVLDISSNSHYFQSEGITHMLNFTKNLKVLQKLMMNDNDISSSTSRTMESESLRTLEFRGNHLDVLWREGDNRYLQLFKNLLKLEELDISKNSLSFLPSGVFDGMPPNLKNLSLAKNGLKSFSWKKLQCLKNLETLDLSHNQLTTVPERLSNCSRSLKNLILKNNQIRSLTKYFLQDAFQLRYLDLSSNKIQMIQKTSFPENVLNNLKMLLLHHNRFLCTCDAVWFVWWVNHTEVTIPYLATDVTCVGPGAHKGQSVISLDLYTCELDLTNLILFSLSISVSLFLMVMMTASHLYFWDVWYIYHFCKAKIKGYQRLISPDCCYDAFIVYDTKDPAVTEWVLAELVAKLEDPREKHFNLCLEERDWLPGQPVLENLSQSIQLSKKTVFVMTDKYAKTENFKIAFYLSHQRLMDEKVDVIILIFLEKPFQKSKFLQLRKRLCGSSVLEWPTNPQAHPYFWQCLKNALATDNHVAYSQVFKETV

Compound | TLR7-wt_LEC 48 h [2] [µM] | minimal effective concentration ([1]; lowest effective concentration) [µM] | minimal effective concentration [1] [µM] | TLR7-dIRR2_LEC 48 h [3] [µM]
Nc1nc(-n2cccn2)nc2c1[nH]c(=O)n2Cc1cccc(CO)c1 [Compound 39] | 0.05 | 0.01 | – | –
Cc1ccc(Cn2c(=O)[nH]c3c(N)nc(-n4cccn4)nc32)cn1 [Compound 50] | 0.03 | 0.01 | – | –
Nc1nc(-n2cccn2)nc2c1[nH]c(=O)n2Cc1cccc(C(=O)O)c1 [Compound 38] | 0.38 | > 25 | – | –
CCOP(=O)(Cc1cccc(Cn2c(=O)[nH]c3c(N)nc(-n4cccn4)nc32)c1)OCC [Compound 40] | 0.03 | – | 0.01 | –
CCOP(=O)(CCCn1ccnc1-c1nc(N)c2[nH]c(=O)n(Cc3ccccc3)c2n1)OCC [Compound 47] | 14.12 | – | 1.64 | –
COC(=O)c1cccc(Cn2c(=O)[nH]c3c(N)nc(-n4cccn4)nc32)c1 [Compound 37] | 0.05 | 0.01 | – | –
Nc1nc(-c2ccn(CCO)n2)nc2c1[nH]c(=O)n2Cc1ccccc1 [Compound 52] | 4.42 | 0.42 | – | 0.41

Second part, led by results:

TLR7-wt_LEC 48 h [2] [µM] | Compound | minimal effective concentration ([1]; lowest effective concentration) [µM] | minimal effective concentration [1] [µM] | TLR7-dIRR2_LEC 48 h [3] [µM]
0.10 | COC(=O)c1cccc(Cn2c(=O)[nH]c3c(N)nc(-c4ccn[nH]4)nc32)c1 [Compound 44] | 0.04 | – | –
0.50 | Nc1nc(-c2ccn[nH]2)nc2c1[nH]c(=O)n2Cc1cn2ccccc2n1 [Compound 43] | 0.15 | – | –
0.03 | Cl.Nc1nc(-n2cccn2)nc2c1[nH]c(=O)n2Cc1cccc(CP(=O)(O)O)c1 [Compound 41] | 0.4 | – | –
0.16 | Nc1nc(-c2cc(C3CC3)n[nH]2)nc2c1[nH]c(=O)n2Cc1ccccc1 [Compound 51] | 0.17 | – | –
0.58 | Nc1nc(-c2ccn[nH]2)nc2c1[nH]c(=O)n2Cc1cccc(C(=O)O)c1 [Compound 45] | 1.37 | – | –
0.01 | Nc1nc(-n2cccn2)nc2c1[nH]c(=O)n2Cc1cn2ccccc2n1 [Compound 48] | 0.01 | – | –
0.21 | Nc1nc(-c2ccn[nH]2)nc2c1[nH]c(=O)n2Cc1cccc(CO)c1 [Compound 46] | 0.03 | – | –
0.31 | COc1ccnc(Cn2c(=O)[nH]c3c(N)nc(-n4cccn4)nc32)c1OC [Compound 49] | 0.06 | – | –
